Reference: PubChem BioAssay (NCI)
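Step 1: Grow cells in 96-well plates. Step 2: Expose to compound for 48 hours at 5 concentrations. Step 3: Interpolate endpoints linearly; if unreached, use highest concentration. TGI: total growth inhibition.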

Experiments:
Assay in all cases: NCI tumour cell line growth inhibition, 48 h
SF-539 CNS = test system: SF-539 CNS
SK-OV-3 ovarian = test system: SK-OV-3 ovarian
CCRF-CEM leukemia = test system: CCRF-CEM leukemia
OVCAR-8 ovarian = test system: OVCAR-8 ovarian
SF-295 CNS = test system: SF-295 CNS
DU-145 prostate = test system: DU-145 prostate
SF-268 CNS = test system: SF-268 CNS
EKVX NSCLC = test system: EKVX NSCLC
PC-3 prostate = test system: PC-3 prostate
HCT-116 colon = test system: HCT-116 colon
NCI-H23 lung = test system: NCI-H23 lung
COLO 205 colon = test system: COLO 205 colon
UO-31 renal = test system: UO-31 renal
HOP-62 NSCLC = test system: HOP-62 NSCLC
SK-MEL-5 melanoma = test system: SK-MEL-5 melanoma
TK-10 renal = test system: TK-10 renal
NCI-H460 lung = test system: NCI-H460 lung
NCI-H226 lung = test system: NCI-H226 lung
KM12 colon = test system: KM12 colon
SNB-19 CNS = test system: SNB-19 CNS
SN12C renal = test system: SN12C renal
SW-620 colon = test system: SW-620 colon
LOX IMVI melanoma = test system: LOX IMVI melanoma
RXF 393 renal = test system: RXF 393 renal
MDA-N = test system: MDA-N
A549 NSCLC = test system: A549 NSCLC
MCF7 breast = test system: MCF7 breast
SNB-75 CNS = test system: SNB-75 CNS
A498 renal = test system: A498 renal
HCC-2998 colon = test system: HCC-2998 colon
SK-MEL-2 melanoma = test system: SK-MEL-2 melanoma
OVCAR-4 ovarian = test system: OVCAR-4 ovarian
SR leukemia = test system: SR leukemia
HS 578T breast = test system: HS 578T breast
RPMI-8226 leukemia = test system: RPMI-8226 leukemia
UACC-257 melanoma = test system: UACC-257 melanoma
NCI/ADR-RES ovarian = test system: NCI/ADR-RES ovarian
HL-60(TB) leukemia = test system: HL-60(TB) leukemia
OVCAR-3 ovarian = test system: OVCAR-3 ovarian
HT29 colon = test system: HT29 colon
SK-MEL-28 melanoma = test system: SK-MEL-28 melanoma
ACHN renal = test system: ACHN renal
M14 melanoma = test system: M14 melanoma
HOP-92 NSCLC = test system: HOP-92 NSCLC
K-562 leukemia = test system: K-562 leukemia
MDA-MB-231 breast = test system: MDA-MB-231 breast
NCI-H522 lung = test system: NCI-H522 lung
HCT-15 colon = test system: HCT-15 colon
MOLT-4 leukemia = test system: MOLT-4 leukemia
786-0 renal = test system: 786-0 renal
UACC-62 melanoma = test system: UACC-62 melanoma
MDA-MB-435 = test system: MDA-MB-435
T-47D breast = test system: T-47D breast
BT-549 breast = test system: BT-549 breast
CAKI-1 renal = test system: CAKI-1 renal
IGROV1 ovarian = test system: IGROV1 ovarian
MALME-3M melanoma = test system: MALME-3M melanoma
OVCAR-5 ovarian = test system: OVCAR-5 ovarian
U251 CNS = test system: U251 CNS

SMILES: Cc1ccc([N+](=O)[O-])cc1S(=O)(=O)Nc1ccc(C2=NOC(c3ccco3)C2)cc1 (configuration not stated)
- TGI (SF-539 CNS): 68.3 µM
- TGI (SK-OV-3 ovarian): 97.4 µM
- TGI (CCRF-CEM leukemia): > 100 µM
- TGI (OVCAR-8 ovarian): > 100 µM
- TGI (SF-295 CNS): 46.5 µM
- TGI (DU-145 prostate): 39.3 µM
- TGI (SF-268 CNS): 97.1 µM
- TGI (EKVX NSCLC): 61.9 µM
- TGI (PC-3 prostate): 40.5 µM
- TGI (HCT-116 colon): 31.9 µM
- TGI (NCI-H23 lung): 37.4 µM
- TGI (COLO 205 colon): 80.9 µM
- TGI (UO-31 renal): 32.8 µM
- TGI (HOP-62 NSCLC): 30.8 µM
- TGI (SK-MEL-5 melanoma): 27.7 µM
- TGI (TK-10 renal): > 100 µM
- TGI (NCI-H460 lung): 37.2 µM
- TGI (NCI-H226 lung): 39.6 µM
- TGI (KM12 colon): 24.7 µM
- TGI (SNB-19 CNS): 37.9 µM
- TGI (SN12C renal): 52.6 µM
- TGI (SW-620 colon): 58.9 µM
- TGI (LOX IMVI melanoma): 40.2 µM
- TGI (RXF 393 renal): 23.3 µM
- TGI (MDA-N): 31.5 µM
- TGI (A549 NSCLC): 59.7 µM
- TGI (MCF7 breast): 35.5 µM
- TGI (SNB-75 CNS): 35.7 µM
- TGI (A498 renal): 34.6 µM
- TGI (HCC-2998 colon): 31.9 µM
- TGI (SK-MEL-2 melanoma): 33.8 µM
- TGI (OVCAR-4 ovarian): 32.7 µM
- TGI (SR leukemia): 23.8 µM
- TGI (HS 578T breast): > 100 µM
- TGI (RPMI-8226 leukemia): 96.8 µM
- TGI (UACC-257 melanoma): 39.1 µM
- TGI (NCI/ADR-RES ovarian): 52.6 µM
- TGI (HL-60(TB) leukemia): 54.7 µM
- TGI (OVCAR-3 ovarian): 30.7 µM
- TGI (HT29 colon): 56 µM
- TGI (SK-MEL-28 melanoma): 43.5 µM
- TGI (ACHN renal): 49 µM
- TGI (M14 melanoma): 32.8 µM
- TGI (HOP-92 NSCLC): 88.9 µM
- TGI (K-562 leukemia): 59.3 µM
- TGI (MDA-MB-231 breast): 33.1 µM
- TGI (NCI-H522 lung): 32.7 µM
- TGI (HCT-15 colon): 32 µM
- TGI (MOLT-4 leukemia): 46.6 µM
- TGI (786-0 renal): 34.9 µM
- TGI (UACC-62 melanoma): 27.1 µM
- TGI (MDA-MB-435): 11.8 µM
- TGI (T-47D breast): 89.4 µM
- TGI (BT-549 breast): 39.2 µM
- TGI (CAKI-1 renal): 70.4 µM
- TGI (IGROV1 ovarian): 84.4 µM
- TGI (MALME-3M melanoma): 53.5 µM
- TGI (OVCAR-5 ovarian): 52.2 µM

SMILES: CC1(C)C2C=C(CCN3CCOCC3)CC1C2 (configuration not stated)
- TGI (SF-539 CNS): > 100 µM
- TGI (SK-OV-3 ovarian): > 100 µM
- TGI (CCRF-CEM leukemia): > 100 µM
- TGI (OVCAR-8 ovarian): > 100 µM
- TGI (SF-295 CNS): > 100 µM
- TGI (DU-145 prostate): > 100 µM
- TGI (SF-268 CNS): > 100 µM
- TGI (EKVX NSCLC): > 100 µM
- TGI (PC-3 prostate): > 100 µM
- TGI (HCT-116 colon): > 100 µM
- TGI (NCI-H23 lung): > 100 µM
- TGI (COLO 205 colon): > 100 µM
- TGI (UO-31 renal): > 100 µM
- TGI (U251 CNS): > 100 µM
- TGI (HOP-62 NSCLC): > 100 µM
- TGI (SK-MEL-5 melanoma): > 100 µM
- TGI (TK-10 renal): > 100 µM
- TGI (NCI-H460 lung): > 100 µM
- TGI (NCI-H226 lung): > 100 µM
- TGI (KM12 colon): > 100 µM
- TGI (SNB-19 CNS): > 100 µM
- TGI (SN12C renal): > 100 µM
- TGI (SW-620 colon): > 100 µM
- TGI (LOX IMVI melanoma): > 100 µM
- TGI (RXF 393 renal): > 100 µM
- TGI (MDA-N): > 100 µM
- TGI (A549 NSCLC): > 100 µM
- TGI (MCF7 breast): > 100 µM
- TGI (SNB-75 CNS): > 100 µM
- TGI (A498 renal): > 100 µM
- TGI (HCC-2998 colon): > 100 µM
- TGI (SK-MEL-2 melanoma): > 100 µM
- TGI (OVCAR-4 ovarian): > 100 µM
- TGI (SR leukemia): > 100 µM
- TGI (HS 578T breast): > 100 µM
- TGI (RPMI-8226 leukemia): > 100 µM
- TGI (UACC-257 melanoma): > 100 µM
- TGI (NCI/ADR-RES ovarian): > 100 µM
- TGI (HL-60(TB) leukemia): > 100 µM
- TGI (OVCAR-3 ovarian): > 100 µM
- TGI (HT29 colon): > 100 µM
- TGI (SK-MEL-28 melanoma): > 100 µM
- TGI (ACHN renal): > 100 µM
- TGI (M14 melanoma): > 100 µM
- TGI (HOP-92 NSCLC): > 100 µM
- TGI (K-562 leukemia): > 100 µM
- TGI (MDA-MB-231 breast): > 100 µM
- TGI (NCI-H522 lung): > 100 µM
- TGI (HCT-15 colon): > 100 µM
- TGI (MOLT-4 leukemia): > 100 µM
- TGI (786-0 renal): > 100 µM
- TGI (UACC-62 melanoma): > 100 µM
- TGI (MDA-MB-435): > 100 µM
- TGI (T-47D breast): > 100 µM
- TGI (BT-549 breast): > 100 µM
- TGI (CAKI-1 renal): > 100 µM
- TGI (IGROV1 ovarian): > 100 µM
- TGI (MALME-3M melanoma): > 100 µM
- TGI (OVCAR-5 ovarian): > 100 µM
